≈ marks a conversion by molar mass, not a printed value. Like-named read-outs stand apart in the source and are kept apart here.
Legend:
[1] = Thermodynamic equilibrium aqueous solubility assay; format: physicochemical; conditions: thermodynamic from solid; for solubility thermodynamic: aqueous solvent, read-out: Aq. sol., mg/mL (pH)
Protocol: Thermodynamic Equilibrium Aqueous Solubility Assay
The calibration standard is prepared by accurately weighing 0.5-0.7 mg of sample in 5 ml of methanol. If the material is not fully soluble in methanol, other solvents such as DMSO or mixed solvents will be used.
*The calibration standard is typically prepared fresh immediately before the start of the assay. A two-point calibration curve should be used to determine the concentration of the final solution. A serial dilution is performed on the standard solution.
The final saturated solution is prepared by adding 1.0 ml of the appropriate aqueous solvent to the remaining portion of material (˜1 mg/l ml) into a 1 dram vial. The solution is sonicated and vortexed for ˜30 seconds. The sample solution is placed on an orbiter that continually agitates the sample solutions for 15-24 hours at room temperature. The final saturated solution is then transferred to a 1.5 ml Eppendorf tube and centrifuged for ˜2 min. at 10000 rpms. The supernatant from the saturated solution is transferred to a glass HPLC vial without filtering since the 1.5 mL volume is insufficient to saturate a syringe filter. This sample preparation procedure nullifies the effects of non-specific binding to the filtering apparatus.
The standards and sample are analyzed by HPLC using either UV/Vis diode array or variable wavelength detection. Typical quantitation wavelengths are 210 or 254 nm; detection wavelength can be individually customized to optimize sensitivity. In addition to UV detection, mass spectrometry detection is recommended if available in order to confirm the identity of the HPLC-UV peak of interest.
Dilutions of aqueous test solutions are performed if HPLC-UV peak is beyond the linear portion of the standard calibration curve. Typical dilutions include 100 ul/900 ul (×10) or 500 ul/500 ul (2×), as required.
HPLC grade solvents are employed.

[2] = Solution stability assay (pH 1.0 and pH 7.4, 37° C.); format: physicochemical
Protocol: Acetonitrile Stock Solution: Prepare an Acetonitrile Stock Solution of the prodrug by dissolving 1.5-2.0 mg of accurately weighted compound in 5.0 mL of acetonitrile in 5 mL volumetric flask.
(§1) pH 7.4 Buffer Working Solution: Prepare a pH 7.4 Buffer working Solution of drug by adding 1.5 mL of the Acetonitrile Stock Solution to 3.5 mL of stability buffer in a 20 mL scintillation vial, mix very well. Using a 3 mL syringe withdraw ˜3 mL of solution and filter using the Gelman 0.45 μm syringe filter into a clean 1.5 mL LC vial. This filtered solution will be used to evaluate the prodrug degradation throughout the course of the study. Target concentration: 90-120 μg/mL (70% Aqueous: 30% Acetonitrile)
as §1, with “1.0 Acidic” for “7.4 Buffer”, “pH1.0 Working” for “pH 7.4 Buffer working”
Following the sample preparation procedure described above a single sample (n=1) is prepared for each pH condition. The samples were then placed in an HPLC autosampler maintained at 37° C. and samples were analyzed over a 24 hr period. Prodrug remaining (%) is reported relative to the initial peak area (t=0 h). In cases where a conversion to parent half-life could be calculated, a t1/2 was generated. Confirmation of the conversion to parent from the prodrug was obtained by LCMS and HPLC analysis of the final timepoint samples.
Typical LC parameters are shown below:
• HPLC System: HP1100 Series, Hewlett Packard., Heated autosampler • Analytical column. Synergi 4u Hydro C18, 4.6 mm×5.0 cm, Phenomenex • Column temperature: 40° C. • Autosampler temp: 37° C. • Flow rate: 1.0 mL/min • Injection Volume: 10 μL • Mobile Phase: A: Acetonitrile • B: 0.1% Phosphoric acid in water • Run Time: 14.0 minutes • Typical LCMS parameters are shown below: • LC-MS System: Surveyor HPLC system, ThermoFinnigan LCQ Deca XP Max (Ion trap) • Analytical column. Synergi 4u Hydro C18, 4.6 mm×5.0 cm, Phenomenex • Column temperature: 40° C. • Autosampler temp: 22° C. • Flow rate: 1.0 mL/min • Injection Volume: 5 […] • Mobile Phase: A: 95% Acetonitrile/5% 20 mM Ammonium Acetate • B: 5% Acetonitrile/95% 20 mM Ammonium Acetate • LCQ Parameters • Sheath Flow Rate: 81.64 • Aux/Sweep Flow Rate: 19.01 • Current (uA): 10.89 • Voltage (kV): 5.00 • Capillary©: 348.10 • Capillary Voltage (V): 30.44

[3] = pH 1, conversion of the prodrug to compound 1, 37° C., read-out: Aq. Stability half-life (pH 1/7.4) Hrs (converted)
[4] = pH 7.4, conversion of the prodrug to compound 1, 37° C., read-out: Aq. Stability half-life (pH 1/7.4) Hrs (converted)

Row | Structure (SMILES) | solubility ([1]; aqueous buffer, pH 6.6 buffer) [mg/mL] | half-life ([2]; pH 1, parent compound, read-out: chemical stability half-life (converted)) [h] | half-life ([2]; pH 7.4, parent compound, read-out: chemical stability half-life (converted)) [h] | solubility thermodynamic ([1]; pH 6.5, aqueous buffer) [mg/mL] | half-life [2, 3] [h] | half-life [2, 4] [h] | solubility thermodynamic ([1]; pH 7.4, aqueous buffer) [mg/mL]
1 | CC(C)[C@@H](NC(=O)NCC(C)(C)O)C(=O)N1CC[C@](O)(c2ccc(Cl)cc2)C(C)(C)C1 [Compound 1, 1-((R)-1-((S)-4-(4-chlorophenyl)-4-hydroxy-3,3-dimethylpiperidin-1-yl)-3-methyl-1-oxobutan-2-yl)-3-(2-hydroxy-2-methylpropyl)urea] | 0.047 (≈ 104 µM) | 30 | > 22 |  |  |  | 
2 | CC(C)[C@@H](NC(=O)NCC(C)(C)OC(=O)CN)C(=O)N1CC[C@](O)(c2ccc(Cl)cc2)C(C)(C)C1 [Example 1, 1-(3-((R)-1-((S)-4-(4-chlorophenyl)-4-hydroxy-3,3-dimethylpiperidin-1-yl)-3-methyl-1-oxobutan-2-yl)ureido)-2-methylpropan-2-yl 2-aminoacetate] |  |  |  | 1.1 (≈ 2150 µM) | 159 | 86 | 
3 | CC(C)[C@H](N)C(=O)OC(C)(C)CNC(=O)N[C@@H](C(=O)N1CC[C@](O)(c2ccc(Cl)cc2)C(C)(C)C1)C(C)C [Example 3, (S)-1-(3-((R)-1-((S)-4-(4-chlorophenyl)-4-hydroxy-3,3-dimethylpiperidin-1-yl)-3-methyl-1-oxobutan-2-yl)ureido)-2-methylpropan-2-yl 2-amino-3-methylbutanoate] |  |  |  | > 0.6 | 237 | > 22 | 
4 | CC(=O)OC(C)(C)CNC(=O)N[C@@H](C(=O)N1CC[C@](O)(c2ccc(Cl)cc2)C(C)(C)C1)C(C)C [Example 4, 1-(3-((R)-1-((S)-4-(4-chlorophenyl)-4-hydroxy-3,3-dimethylpiperidin-1-yl)-3-methyl-1-oxobutan-2-yl)ureido)-2-methylpropan-2-yl acetate] |  |  |  | 0.03 | 29 | > 22 | 
5 | CCC(=O)OC(C)(C)CNC(=O)N[C@@H](C(=O)N1CC[C@](O)(c2ccc(Cl)cc2)C(C)(C)C1)C(C)C [Example 5, 1-(3-((R)-1-((S)-4-(4-chlorophenyl)-4-hydroxy-3,3-dimethylpiperidin-1-yl)-3-methyl-1-oxobutan-2-yl)ureido)-2-methylpropan-2-yl propionate] |  |  |  | 0.04 (≈ 78.4 µM) | 25 | > 22 | 
6 | CC(C)[C@@H](NC(=O)NCC(C)(C)OC(=O)OCOC(=O)/C=C/C(=O)O)C(=O)N1CC[C@](O)(c2ccc(Cl)cc2)C(C)(C)C1 [Example 6, (R,E)-3-((S)-4-(4-chlorophenyl)-4-hydroxy-3,3-dimethylpiperidine-1-carbonyl)-2,8,8-trimethyl-5,10,14-trioxo-9,11,13-trioxa-4,6-diazaheptadec-15-en-17-oic acid] |  |  |  | 2.2 (≈ 3510 µM) | 61 | 49 | 
7 | CC(C)[C@@H](NC(=O)NCC(C)(C)OC(=O)OCCN1CCOCC1)C(=O)N1CC[C@](O)(c2ccc(Cl)cc2)C(C)(C)C1 [Example 7, 1-(3-((R)-1-((S)-4-(4-chlorophenyl)-4-hydroxy-3,3-dimethylpiperidin-1-yl)-3-methyl-1-oxobutan-2-yl)ureido)-2-methylpropan-2-yl 2-morpholinoethyl carbonate] |  |  |  | 0.34 (≈ 556 µM) | 85 | 131 | 
8 | CC(C)[C@@H](NC(=O)NCC(C)(C)OC(=O)OCOC(=O)Cc1ccc(OP(=O)(O)O)cc1)C(=O)N1CC[C@](O)(c2ccc(Cl)cc2)C(C)(C)C1 [Example 9] |  |  |  | 1.6 (≈ 2160 µM) | 25 | 72 | 
9 | CC(C)[C@@H](NC(=O)NCC(C)(C)OCOP(=O)(O)O)C(=O)N1CC[C@](O)(c2ccc(Cl)cc2)C(C)(C)C1 [Example 10] |  |  |  |  | < 1 |  | 
10 | CC(C)[C@@H](NC(=O)NCC(C)(C)OC(=O)OCOP(=O)(O)O)C(=O)N1CC[C@](O)(c2ccc(Cl)cc2)C(C)(C)C1 [Example 11] |  |  |  |  | 107 | 0.3 | 
11 | CC(C)[C@@H](N)C(=O)OCOC(=O)OC(C)(C)CNC(=O)N[C@@H](C(=O)N1CC[C@](O)(c2ccc(Cl)cc2)C(C)(C)C1)C(C)C [Example 12] |  |  |  |  | 82 | 0.3 | 
12 | CC(C)[C@@H](NC(=O)NCC(C)(C)OC(=O)OCOC(=O)C(C)(C)N)C(=O)N1CC[C@](O)(c2ccc(Cl)cc2)C(C)(C)C1 [Example 13] |  |  |  |  | 10.1 | 0.25 | 
13 | CC(C)[C@@H](NC(=O)NCC(C)(C)OC(=O)OCOC(=O)C1(N)CC1)C(=O)N1CC[C@](O)(c2ccc(Cl)cc2)C(C)(C)C1 [Example 14] |  |  |  |  | 49 | 107 | 0.18 (≈ 295 µM)
14 | CC(=O)OCOC(=O)OC(C)(C)CNC(=O)N[C@@H](C(=O)N1CC[C@](O)(c2ccc(Cl)cc2)C(C)(C)C1)C(C)C [Example 15] |  |  |  |  | > 22 | > 22 | 0.022 (≈ 38.6 µM)
15 | CC(C)[C@@H](NC(=O)NCC(C)(C)OC(=O)Cc1ccc(OP(=O)(O)O)cc1)C(=O)N1CC[C@](O)(c2ccc(Cl)cc2)C(C)(C)C1 [Example 24] |  |  |  | 1.1 (≈ 1650 µM) | 77 | > 22 | 

Other lines, results leading:

Row | solubility ([1]; aqueous buffer, pH 6.6 buffer) [mg/mL] | half-life ([2]; pH 1, parent compound, read-out: chemical stability half-life (converted)) [h] | half-life ([2]; pH 7.4, parent compound, read-out: chemical stability half-life (converted)) [h] | solubility thermodynamic ([1]; pH 6.5, aqueous buffer) [mg/mL] | half-life [2, 3] [h] | half-life [2, 4] [h] | solubility thermodynamic ([1]; pH 7.4, aqueous buffer) [mg/mL] | Structure (SMILES)
16 |  |  |  |  | > 22 | > 22 | < 0.007 | CCOC(=O)CCC(=O)OC(C)(C)CNC(=O)N[C@@H](C(=O)N1CC[C@](O)(c2ccc(Cl)cc2)C(C)(C)C1)C(C)C [Example 17]
17 |  |  |  |  | > 22 | > 22 | 0.059 (≈ 104 µM) | COC(=O)CCC(=O)OC(C)(C)CNC(=O)N[C@@H](C(=O)N1CC[C@](O)(c2ccc(Cl)cc2)C(C)(C)C1)C(C)C [Example 18]
18 |  |  |  | 0.08 (≈ 144 µM) | > 22 | > 22 |  | CC(C)[C@@H](NC(=O)NCC(C)(C)OC(=O)CCC(=O)O)C(=O)N1CC[C@](O)(c2ccc(Cl)cc2)C(C)(C)C1 [Example 19]
19 |  |  |  | 0.317 (≈ 558 µM) | > 22 | > 22 |  | CC(C)[C@@H](NC(=O)NCC(C)(C)OC(=O)CCCC(=O)O)C(=O)N1CC[C@](O)(c2ccc(Cl)cc2)C(C)(C)C1 [Example 20]
20 |  |  |  |  | > 22 | > 22 | > 16 | CC(C)[C@@H](NC(=O)NCC(C)(C)OC(=O)CS(=O)(=O)O)C(=O)N1CC[C@](O)(c2ccc(Cl)cc2)C(C)(C)C1 [Example 21]
21 |  |  |  | > 7 | 44 | > 22 |  | CC(C)[C@@H](NC(=O)NCC(C)(C)OC(=O)CCS(=O)(=O)O)C(=O)N1CC[C@](O)(c2ccc(Cl)cc2)C(C)(C)C1 [Example 22]
22 |  |  |  | > 0.3 | 25 | 23 |  | CC(C)[C@@H](NC(=O)NCC(C)(C)OC(=O)OCS(=O)(=O)O)C(=O)N1CC[C@](O)(c2ccc(Cl)cc2)C(C)(C)C1 [Example 23]
